Data set [1] has as its target T1, human mGlu2 receptor (Homo sapiens, UniProt Q14416).
T1 construct: expressed in transfected cells; host or cells: CHO cells (membrane preparation)
The data set can be described thus: [35S]GTPγS binding assay, mGluR2 negative allosteric modulation. The format is biochemical. The conditions noted are these: for Emax: maximal % inhibition relative to the control glutamate response, read-out: GTPγS-hmGluR2 anGT Emax; for IC50: membranes from CHO cells transfected with human mGlu2 receptor, glutamate 60 μM (~EC80), read-out: GTPγS-hmGluR2 anGT pIC50 (converted). From the text: Membrane-bound radioactivity was counted in a Topcount.

Data set [2] concerns rats. The data set can be described thus: Reversal of the effect of the mGluR2 PAM JNJ-42153605-induced inhibition of scopolamine-induced hyperlocomotion. The format is in vivo. Conditions: Rattus norvegicus, criterion total distance >1500 cm, read-out: ED50 SCOP JNJ-42153605. How it is done:
2) Reversal of the Effect of the mGluR2 PAM JNJ-42153605-Induced Inhibition of Scopolamine-Induced Hyperlocomotion
Motor activity was measured in microprocessor-based motor activity arenas (closed gray PVC cylinders with a height of 39 cm and a diameter of 31 cm). Each arena was placed on an infrared LED (8×8 LEDs) lit box (white PVC squared box; 40×40 cm^2; height 12.5 cm. An infrared-sensitive tube camera and a white light source were mounted to the ceiling above the observation chamber to track the animal. The total distance traveled (cm) was recorded and analyzed using the Noldus Ethovision XT Video Tracking System (Version 7.0.418; Noldus, Wageningen, The Netherlands). The intensity of the light within the activity cages (measured in the centre at the level of the floor) ranged between 4 and 8 LUX.
The rats were pretreated with test compound or vehicle at 60 min before the start of the activity recordings and placed into individual cages. The rats were challenged with JNJ-42153605 (3-(cyclopropylmethyl)-7-(4-phenylpiperidin-1-yl)-8-(trifluoromethyl)[1,2,4]triazolo[4,3-a]pyridine; WO2010/130424; Cid et al. J. Med. Chem. 2012, 55, 8770-8789) (20 mg/kg, i.v.) 30 min before the start of the activity recording combined with scopolamine (0.16 mg/kg, i.v.) just before the start of the activity measurements. Immediately after the injection of scopolamine, the rats were placed into the activity monitors and total distance traveled over the first 30 min was measured.
Animals receiving the combination of JNJ-42153605 and scopolamine (n=433) almost always traveled a distance of less than 1500 cm (<1500 cm) (only 2.5% of the control rats traveled a distance of more than 1500 cm (>1500 cm)). On the other hand, animals challenged with scopolamine alone (n=215) always traveled a total distance of more than 1500 cm (>1500 cm) and almost always (in 95.8% of the rats) a distance of more than 4400 cm (>4400 cm). […] For reversal of the inhibitory effect of JNJ-42153605 on the scopolamine-induced hyperlocomotion, the following all-or-none criteria were adopted: (1) reversal: total distance >1500 cm.

Data set [3] relates to Wiga Wistar rats. The data set can be described thus: Reversal of LY-404039-induced decrease of palpebral opening in apomorphine-challenged rats. The format is in vivo. Conditions: Rattus norvegicus, criterion cumulative palpebral opening score >26, read-out: ED50 APO LY-404039. How it is done: Male Wiga Wistar rats (Crl:WI; Charles River Germany; 220±40 g) were housed under standard laboratory conditions (21±2° C.; 50-65% relative humidity; light-dark cycle set at 12 h; lights on at 6.00 h) and fasted overnight prior to the start of the experiments (tap water remained available ad libitum). During the test period, they were housed in individual cages. Palpebral opening was scored every 5 min over the first hour after injection of apomorphine (1.0 mg/kg, i.v.) in animals either pretreated or not pretreated with LY-404039 (2.5 mg/kg, s.c.) at 1 h prior to the apomorphine injection. The animals were also pretreated with test compound or solvent at a predefined interval before apomorphine challenge. The score system was: (5) exophthalmos, (4) wide open, (3) open for three-quarters, (2) half open, (1) open for one-quarter, (0) closed. The scores for palpebral opening were cumulated over the 60-min observation period.
In animals receiving apomorphine alone the median palpebral opening is 43 whereas in animals receiving apomorphine and LY-404039, the median palpebral opening is 17.

In data set [4] the test system is Wiga rats. The data set can be described thus: Induction of mydriasis. The format is in vivo. Conditions: Rattus norvegicus, route PO, pupil diameter >25 units 1 h post-administration. How it is done: The pupil diameter of Wiga rats was measured with a microscopic micrometer (1 unit= 1/24 mm). Criteria for drug-induced effects: pupil diameter >25 units for mydriasis (in controls: 1.9%) 1 h post-administration of the test compound.

Like-named read-outs stand apart in the source and are kept apart here. Bounds are passed on as bounds.

T1 sequence (Q14416 19-872): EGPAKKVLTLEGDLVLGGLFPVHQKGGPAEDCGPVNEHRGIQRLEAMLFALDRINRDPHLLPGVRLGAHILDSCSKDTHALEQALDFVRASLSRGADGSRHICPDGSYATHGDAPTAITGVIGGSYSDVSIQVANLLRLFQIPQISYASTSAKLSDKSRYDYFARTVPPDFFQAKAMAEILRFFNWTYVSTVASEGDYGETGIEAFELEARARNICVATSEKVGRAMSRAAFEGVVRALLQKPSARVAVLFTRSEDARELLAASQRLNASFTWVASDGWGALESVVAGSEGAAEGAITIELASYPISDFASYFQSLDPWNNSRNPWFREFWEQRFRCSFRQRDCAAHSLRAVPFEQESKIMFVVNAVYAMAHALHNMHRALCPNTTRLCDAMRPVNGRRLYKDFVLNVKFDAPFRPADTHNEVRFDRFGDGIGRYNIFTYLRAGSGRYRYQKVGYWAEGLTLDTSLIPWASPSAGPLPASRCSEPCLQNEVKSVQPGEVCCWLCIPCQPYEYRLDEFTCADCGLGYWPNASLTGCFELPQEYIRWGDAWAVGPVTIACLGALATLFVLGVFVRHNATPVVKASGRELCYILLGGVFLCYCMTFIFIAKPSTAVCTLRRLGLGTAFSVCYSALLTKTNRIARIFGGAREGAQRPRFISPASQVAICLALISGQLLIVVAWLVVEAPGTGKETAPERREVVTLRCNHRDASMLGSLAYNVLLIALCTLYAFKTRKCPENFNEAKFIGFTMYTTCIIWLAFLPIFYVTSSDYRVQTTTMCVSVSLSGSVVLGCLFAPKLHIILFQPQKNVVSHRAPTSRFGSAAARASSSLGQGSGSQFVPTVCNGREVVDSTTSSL

For `C[C@H]1CN(c2ccc(C(F)(F)F)cc2)C(=O)c2c(-c3cc(-c4ccccn4)no3)cnn21` [compound 7], the melting point (in general, the temperature, or range, at which the solid turns liquid) was 227.97 °C. In data set [1], the Emax – broadly, the greatest response seen or fitted, relative to the assay's reference – was 107% and the IC50 is 11.7 nM.
As for `Cc1ccncc1-c1cc(-c2cnn3c2C(=O)N(c2ccc(C(F)(F)F)c(Cl)c2)C[C@@H]3C)on1` [compound 15], the melting point turned out to be 149.26 °C. Moreover, in data set [1], the Emax worked out at 110% and the IC50 is 1.2 nM. In data set [2] (route PO), the ED50 (usually the dose that gives a 50% effect, or the effect in half of the subjects) was over 0.63 mg/kg.
Taken in the same sequence, the figures for `C[C@H]1CN(c2ccc(C(F)(F)F)c(Cl)c2)C(=O)c2c(-c3cc(-c4cnccn4)no3)cnn21` [compound 16] were 168.47 °C, 105%, 3.8 nM and over 0.63 mg/kg.
`C[C@H]1CN(c2ccc(C(F)(F)F)cc2)C(=O)c2c(-c3cc(-c4ccc(N)nc4)no3)cnn21` [Co. No. 2, (7S)-3-[3-(6-Amino-3-pyridyl)isoxazol-5-yl]-7-methyl-5-[4-(trifluoromethyl)phenyl]-6,7-dihydropyrazolo[1,5-a]pyrazin-4-one] came in with a melting point of 263.6 °C. In data set [1], the Emax stood at 112% and the IC50 is 1.95 nM. Further, the ED50 in data set [2] (route PO) came out at 0.28 mg/kg. In data set [2] (route SC), the ED50 was 0.3 mg/kg. The ED50 in data set [3] (route PO) amounted to 0.32 mg/kg. Also, the ED50 in data set [3] (route SC) is 0.2 mg/kg. In data set [4], this compound came in with an ED50 of 7.94 mg/kg.
Consider `Cc1cc(N2C[C@H](C)n3ncc(-c4cc(-c5cnccn5)no4)c3C2=O)ccc1C(F)(F)F` [compound 21], for which the melting point was found to be 150.37 °C. In data set [1], the Emax amounted to 109% and the IC50 is 7.08 nM. Besides, the ED50 in data set [2] (route PO) is over 0.63 mg/kg.
`C[C@H]1CN(c2ccc(C(F)(F)F)c(Cl)c2)C(=O)c2c(-c3cc(-c4cncc(F)c4)no3)cnn21` [compound 14] had a melting point of 181.56 °C. In addition, in data set [1], the Emax came to 105% and the IC50 is 5.89 nM.
The matching figures for `C[C@H]1CN(c2ccc(C(F)(F)F)cc2)C(=O)c2c(-c3cc(-c4cncc(F)c4)no3)cnn21` [compound 9]: 180.17 °C, 108% and 11 nM.
As for `C[C@H]1CN(c2ccc(C(F)(F)F)cc2)C(=O)c2c(-c3cc(N)no3)cnn21` [Co. No. 1, (7S)-3-(3-Aminoisoxazol-5-yl)-7-methyl-5-[4-(trifluoromethyl)phenyl]-6,7-dihydropyrazolo[1,5-a]pyrazin-4-one], in data set [1], the Emax was 100% and the IC50 was 490 nM.
Take `C[C@H]1CN(c2ccc(C(F)(F)F)cc2)C(=O)c2c(-c3cc(-c4ccccc4)no3)cnn21` [compound 6]: the melting point turned out to be 220.55 °C. Besides, in data set [1], the maximum response (Emax) amounted to 103% and the IC50 was 12.3 nM.
Taken in the same sequence, the figures for `C[C@H]1CN(c2ccc(C(F)(F)F)cc2)C(=O)c2c(-c3cc(-c4cnccn4)no3)cnn21` [compound 11] were 202.51 °C, 105% and 20 nM.
With `C[C@H]1CN(c2ccc(C(F)(F)F)c(Cl)c2)C(=O)c2c(-c3cc(-c4ccc(N)nc4)no3)cnn21` [Co. No. 3, (7S)-3-[3-(6-Amino-3-pyridyl)isoxazol-5-yl]-5-[3-chloro-4-(trifluoromethyl)phenyl]-7-methyl-6,7-dihydropyrazolo[1,5-a]pyrazin-4-one], in data set [1], the Emax is 105% and the IC50 was 1.58 nM. Further, the ED50 in data set [2] (route PO) is 0.5 mg/kg.
Regarding `C[C@H]1CN(c2ccc(C(F)(F)F)cc2)C(=O)c2c(-c3cc(-c4cccnc4)no3)cnn21` [compound 8], the melting point stood at 186.15 °C. For the same compound, in data set [1], the Emax is 105% and the IC50 is 12.9 nM.
In turn, `Cc1cc(N2C[C@H](C)n3ncc(-c4cc(-c5ccccn5)no4)c3C2=O)ccc1C(F)(F)F` [compound 17] registered a melting point of 171.97 °C. In data set [1], the Emax came out at 107% and the IC50 was 10.2 nM. Moreover, the ED50 in data set [2] (route PO) is over 0.63 mg/kg.
Taken in the same sequence, the figures for `Cc1cc(-c2cnn3c2C(=O)N(c2ccc(C(F)(F)F)cc2)C[C@@H]3C)on1` [compound 5] were 161 °C, 102%, 16.6 nM and over 2.5 mg/kg.
In the case of `Cc1cc(N2C[C@H](C)n3ncc(-c4cc(-c5cncc(F)c5)no4)c3C2=O)ccc1C(F)(F)F` [compound 19], the melting point came out at 171.64 °C. For the same compound, in data set [1], the Emax was 104% and the IC50 is 12.9 nM.
As to `C[C@H]1CN(c2ccc(C(F)(F)F)c(Cl)c2)C(=O)c2c(-c3cc(-c4ccccn4)no3)cnn21` [compound 13], the melting point turned out to be 159.08 °C. For the same compound, in data set [1], the maximal response (Emax) worked out at 107% and the IC50 is 7.24 nM. For the same compound, in data set [2] (route PO), the ED50 was over 0.63 mg/kg.
Taken in the same sequence, the figures for `Cc1cc(-c2cnn3c2C(=O)N(c2ccc(C(F)(F)F)c(Cl)c2)C[C@@H]3C)on1` [compound 12] were 126.2 °C, 103%, 2.75 nM and 1.99 mg/kg.
Compound `Cc1ccncc1-c1cc(-c2cnn3c2C(=O)N(c2ccc(C(F)(F)F)c(C)c2)C[C@@H]3C)on1` [compound 20] registered a melting point of 172.39 °C. Further, in data set [1], the Emax was 109% and the IC50 is 2.14 nM. In addition, in data set [2] (route PO), the ED50 was over 0.63 mg/kg.
Taken in the same sequence, the figures for `C[C@H]1CN(c2ccc(C(F)(F)F)c(Cl)c2)C(=O)c2c(-c3cc(-c4cccnc4)no3)cnn21` [Co. No. 4, (7S)-5-[3-Chloro-4-(trifluoromethyl)phenyl]-7-methyl-3-[3-(3-pyridyl)isoxazol-5-yl]-6,7-dihydropyrazolo[1,5-a]pyrazin-4-one] were 115.67 °C, 105%, 2.34 nM and 0.51 mg/kg.
The matching figures for `Cc1cc(N2C[C@H](C)n3ncc(-c4cc(-c5cccnc5)no4)c3C2=O)ccc1C(F)(F)F` [compound 18]: 143.97 °C, 109%, 3.24 nM and over 0.63 mg/kg.
The matching figures for `Cc1ccncc1-c1cc(-c2cnn3c2C(=O)N(c2ccc(C(F)(F)F)cc2)C[C@@H]3C)on1` [compound 10]: 211.19 °C, 108%, 2.88 nM and over 0.63 mg/kg.
